Results on 17 compounds are retold here after article PMC9034162, “Development of pyrazoline-based derivatives as aminopeptidase N inhibitors to overcome cancer invasion and metastasis” (RSC Advances, 2021).

Each structure is given as a SMILES string.

Data set [1] concerns the target T1, porcine APN (Sus scrofa, UniProt P15145).
T1 construct: soluble APN from porcine kidney microsomes (Biocol) was used as enzyme; purchased Biocol; host or cells: porcine kidney microsomes (tissue-derived)
T1 sequence (P15145 1-963): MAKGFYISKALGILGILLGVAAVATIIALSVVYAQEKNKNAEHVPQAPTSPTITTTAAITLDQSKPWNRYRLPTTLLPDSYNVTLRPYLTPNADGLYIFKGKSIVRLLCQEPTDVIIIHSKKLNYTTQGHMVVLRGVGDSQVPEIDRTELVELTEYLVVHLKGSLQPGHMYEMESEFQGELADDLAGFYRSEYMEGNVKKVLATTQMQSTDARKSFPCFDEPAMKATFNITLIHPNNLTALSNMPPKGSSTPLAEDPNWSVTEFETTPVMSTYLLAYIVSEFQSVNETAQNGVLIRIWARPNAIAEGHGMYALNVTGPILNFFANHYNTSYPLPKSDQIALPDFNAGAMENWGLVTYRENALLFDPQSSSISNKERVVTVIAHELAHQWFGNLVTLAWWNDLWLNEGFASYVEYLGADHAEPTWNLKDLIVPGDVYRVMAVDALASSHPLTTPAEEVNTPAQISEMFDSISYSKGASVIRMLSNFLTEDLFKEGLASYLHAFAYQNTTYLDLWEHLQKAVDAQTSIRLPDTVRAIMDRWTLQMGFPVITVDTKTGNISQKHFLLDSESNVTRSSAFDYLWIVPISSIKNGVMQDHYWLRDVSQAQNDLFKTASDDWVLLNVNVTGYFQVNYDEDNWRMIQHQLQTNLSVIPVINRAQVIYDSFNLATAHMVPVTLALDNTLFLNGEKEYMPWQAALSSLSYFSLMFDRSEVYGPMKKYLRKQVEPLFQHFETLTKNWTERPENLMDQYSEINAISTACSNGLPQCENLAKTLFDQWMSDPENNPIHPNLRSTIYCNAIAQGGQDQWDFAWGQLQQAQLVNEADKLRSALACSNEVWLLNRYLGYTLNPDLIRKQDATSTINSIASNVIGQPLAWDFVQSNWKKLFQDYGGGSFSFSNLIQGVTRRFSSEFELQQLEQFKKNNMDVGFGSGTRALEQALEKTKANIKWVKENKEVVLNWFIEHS
Put plainly: Enzymatic inhibition assay against APN in vitro. In kind it is biochemical. Conditions: for IC50: soluble APN from porcine kidney microsomes, L-Leu-p-nitroanilide substrate, pH 7.2, 37 °C 30 min, mean ± SD, triplicate. How it is done:
In the enzymatic inhibition assay against APN in vitro, L-Leu-p-nitroanilide was used as substrate and soluble APN from porcine kidney microsomes (Biocol) was used as enzyme. 50 mM PBS with pH 7.2 was used as buffer solution. Briefly, inhibitors (40 μL), PBS (145 μL), substrate (5 μL, 16 mmol L^−1) and APN solution (10 μL, 0.15 IU mL^−1) were added into 96-well plates. The mixture was incubated at 37 °C for 30 min. The optical density resulting from the hydrolysis product p-nitroanilide was measured at 405 nm with a plate reader (Varioskan, Thermo, USA).

A short description of data set [2]: Body weight monitoring in H22 pulmonary metastasis model. The data set is classed as in vivo. Conditions: 60 mg kg^−1 d^−1 intraperitoneally for 12 days, Kunming mice, weights every two days. The procedure:
(§1) All animal procedures were performed in accordance with the Guidelines for Care and Use of Laboratory Animals of Shandong University and approved by the Animal Ethical and Welfare Committee (AEWC, China). The mice hepatoma H22 cell line was our laboratory-owned and 6 week old male Kunming mice were purchased from Center for New Drugs Evaluation of Shandong University, China. Firstly, H22 cells suspension (0.1 mL, 7.5 × 10^7 mL^−1) was injected via tail vein to establish a mice H22 pulmonary metastasis model. Subsequently, the mice were randomly divided into treatment and control groups. […] The body weights were monitored every two days. Finally, the mice were sacrificed and the lungs were removed and fixed in Bouin's solution. After 24 h, the metastasis nodes on the surface of pulmonary lobes were counted.

Data set [3] deals with mice H22 hepatoma cells. Description: In vivo anti-metastatic assay, mice H22 hepatoma cell pulmonary metastasis model. Conditions: 60 mg kg^−1 d^−1 intraperitoneally for 12 days, Kunming mice, H22 cells via tail vein. How it is done: as §1
The test system of data set [4] is ES-2 cells invasion. Put plainly: In vitro anti-invasion assay (matrigel transwell). The data set is classed as cell-based. How it is done: The carbonate membrane coated with matrigel in the upper chamber of transwell insert (BD BioCoat™ Matrigel™ Invasion Chambers) was rehydrated with RPMI-1640 culture medium (500 μL) containing 1% FBS for 2 h. After removing the medium, the upper and lower chambers were added the RPMI-1640 culture medium (100 μL) with 1% FBS containing the tested compounds and the RPMI-1640 culture medium (750 μL) with 10% FBS, respectively. Then, ES-2 cells suspending in the RPMI-1640 culture medium containing 1% FBS (400 μL, 2.5 × 10^5 cells per mL) were added into the upper chambers. The system was placed at 37 °C in 5% CO2 for 8 h. The ES-2 cells could invade the matrigel and migrate from the upper surface of the carbonate membrane into the lower surface of that. ES-2 cells on the upper surface of the carbonate membrane were erased by cotton swabs. Then, ES-2 cells on the lower surface were fixed with methanol, stained with 0.1% crystal violet, of which the photographs were taken under an inverted microscope. The average numbers of ES-2 cells in five random fields (100×) per well were counted. The inhibition rate of ES-2 cells invasion was calculated as follows: (A − B)/A × 100%, A means the number of ES-2 cells in the control group, and B means the number of ES-2 cells in the treated group. The experiments were repeated three times.

Data set [5] relates to U937. Description: Anti-proliferation assay (MTT). The data set is classed as cell-based. Conditions: Homo sapiens, U-937, 48 h, mean ± SD, triplicate, read-out: IC50 anti-proliferative, U937. The procedure:
(§2) The anti-proliferative activities of the selected compounds were evaluated using the MTT method. All the tumor cell lines were cultured in RPMI-1640 medium with 10% FBS at 37 °C in 5% CO2 humidified incubator. Firstly, cells (100 μL) were plated in 96-well plates and allowed to grow for 4 h. Then different concentrations of inhibitors (100 μL) were added. After incubation for 48 h, MTT solution (20 μL per well, 5 mg mL^−1) was added and the mixture was incubated for additional 4 h. Subsequently, the medium were poured off and DMSO (200 μL) was added to dissolve the formed formazan. After shaking for 15 min, the optical density values were measured using a plate reader at 570 nm (Varioskan, Thermo, USA).

For data set [6], the system named is PC-3. Put plainly: Anti-proliferation assay (MTT). In kind it is cell-based. Conditions: Homo sapiens, 48 h, mean ± SD, triplicate, read-out: IC50 anti-proliferative, PC-3. The procedure:
as §2

Data set [7] concerns PLC/PRF/5. Put plainly: Anti-proliferation assay (MTT). Conditions: Homo sapiens, 48 h, mean ± SD, triplicate, read-out: IC50 anti-proliferative, PLC/PRF/5. In kind it is cell-based. How it is done:
as §2

The test system of data set [8] is K562. Put plainly: Anti-proliferation assay (MTT). The data set is classed as cell-based. Conditions: Homo sapiens, 48 h, mean ± SD, triplicate, read-out: IC50 anti-proliferative, K562. The procedure:
as §2

The subject of data set [9] is HepG2. Put plainly: Anti-proliferation assay (MTT). In kind it is cell-based. Conditions: Homo sapiens, 48 h, mean ± SD, triplicate, read-out: IC50 anti-proliferative, HepG2. The procedure:
as §2

Data set [10] relates to ES-2. Put plainly: Anti-proliferation assay (MTT). Conditions: Homo sapiens, 48 h, mean ± SD, triplicate, read-out: IC50 anti-proliferative, ES-2. In kind it is cell-based. How it is done:
as §2

The term melting point denotes the temperature, or range, at which the solid turns liquid. `NC(=O)N1N=C(c2ccccc2F)CC1c1ccccc1OCC(=O)NO` (stereo not shown) [2h] displayed a melting point of 124.4 to 126.1 °C. Besides, in data set [1], the IC50 was 150 ± 10 nM.

`NC(=O)N1N=C(c2ccccc2)CC1c1ccccc1OCC(=O)NO` (stereo not shown) [compound 1, reference compound] had an IC50 in [1] of 150 ± 20 nM.

As to `NC(=O)N1N=C(c2ccccc2Br)CC1c1ccccc1OCC(=O)NO` (stereo not shown) [compound 2a, 3-(2-Bromophenyl)-5-(2-(2-(hydroxyamino)-2-oxoethoxy)phenyl)-4,5-dihydro-1H-pyrazole-1-carboxamide], the melting point was in the range of 168.4 to 170.2 °C. The IC50 in [1] amounted to 150 ± 30 nM.

In the case of `COc1ccccc1C1=NN(C(N)=O)C(c2ccccc2OCC(=O)NN)C1` (stereo not shown) [compound 2o, 5-(2-(2-Hydrazinyl-2-oxoethoxy)phenyl)-3-(2-methoxyphenyl)-4,5-dihydro-1H-pyrazole-1-carboxamide], the melting point lay in the range of 156.6 to 158.2 °C. Also, the IC50 in data set [1] worked out at 30200 ± 1900 nM.

In turn, `COc1ccccc1C1=NN(C(N)=O)C(c2ccccc2OCC(=O)NO)C1` (stereo not shown) [2d] gave a melting point of 198.4 to 200.2 °C. In addition, the IC50 in data set [1] came out at 270 ± 10 nM.

The compound `NC(=O)N1N=C(c2c(Cl)cccc2Cl)CC1c1ccccc1OCC(=O)NO` (stereo not shown) [compound 2k] had a melting point of 200.2 to 202.2 °C. The “body weight loss” value in data set [2] is on record as “no significant body weight loss”. Further, the “in vivo anti-metastasis effect” value in [3] was “effectively prevent the pulmonary metastasis”. The “anti-invasion activity at 10 μM compared with 100 μM of bestatin” value in data set [4] (ES-2 cells, 10 μM of 2k vs 100 μM bestatin) was “comparable, if not better”. Also, the “anti-invasion effect at 100 μM compared with bestatin” value in data set [4] (ES-2 cells, both at 100 μM, P < 0.05) was “significantly better than that of bestatin”. In addition, the “inhibition of ES-2 cells invasion” value in data set [4] (transwell with matrigel, 8 h, several concentrations) is “inhibit the ES-2 cells invasion in a concentration dependent manner”. Also, in [1] (IC50 ratio vs bestatin), the “fold more potent against APN than bestatin” value is recorded as “over 140 fold”. For the same compound, the “fold more potent against APN than compound 1” value in [1] (IC50 ratio vs compound 1) is listed as > 2 fold. The compound also gave an IC50 in data set [1] of 64 ± 10 nM. Also, the IC50 in data set [5] is 49.2 ± 3.8 µM. Also, in data set [6], the IC50 was 56.1 ± 3.1 µM. For the same compound, in [7], the IC50 worked out at 106 ± 4.7 µM. Further, the IC50 in data set [8] is 15.6 ± 2.2 µM. Moreover, in data set [9], the IC50 stood at 101 ± 4.9 µM. The IC50 in data set [10] came to 141 ± 3.8 µM.

Turning to `COc1ccc(C2=NN(C(N)=O)C(c3ccccc3OCC(=O)NO)C2)cc1` (stereo not shown) [2f], the melting point was 168.4 to 170.2 °C. Besides, the IC50 in data set [1] was 12500 ± 800 nM.

`NC(=O)N1N=C(c2c(F)cccc2F)CC1c1ccccc1OCC(=O)NO` (stereo not shown) [2j] displayed a melting point of 186.2 to 188.2 °C. In data set [1], the IC50 worked out at 120 ± 10 nM.

Take `NC(=O)N1N=C(c2cccc(Br)c2)CC1c1ccccc1OCC(=O)NO` (stereo not shown) [2b]: the melting point is 164.4 to 166.4 °C. For the same compound, in data set [1], the IC50 is 260 ± 50 nM.

With `CC(C)C[C@H](NC(=O)[C@@H](O)[C@H](N)Cc1ccccc1)C(=O)O` [Bestatin, reference compound], the “body weight loss” value in [2] was “no significant body weight loss”. Also, the IC50 in [5], in [6], in data set [7], in data set [8], in data set [9] and in data set [10] was > 500 µM each time.

Compound `NC(=O)N1N=C(c2ccccc2Cl)CC1c1ccccc1OCC(=O)NO` (stereo not shown) [compound 2i] registered a melting point of 172.2 to 174.1 °C. This compound yielded an IC50 in data set [1] of 100 ± 10 nM.

Compound `NC(=O)N1N=C(c2ccc3ccccc3c2)CC1c1ccccc1OCC(=O)NO` (stereo not shown) [2n] showed a melting point of 166.2 to 168.2 °C. The IC50 in [1] came out at 2500 ± 100 nM.

For the compound `NC(=O)N1N=C(c2ccc(Br)cc2)CC1c1ccccc1OCC(=O)NO` (stereo not shown) [2c], the melting point lay in the range of 190.2 to 192.2 °C. For the same compound, the IC50 in data set [1] worked out at 2100 ± 200 nM.

With `Cc1ccccc1C1=NN(C(N)=O)C(c2ccccc2OCC(=O)NO)C1` (stereo not shown) [2g], the melting point is 144.5 to 146.2 °C. Moreover, the IC50 in [1] is 110 ± 10 nM.

The compound `NC(=O)N1N=C(c2cccc3ccccc23)CC1c1ccccc1OCC(=O)NO` (stereo not shown) [2m] registered a melting point of 204.2 to 206.2 °C. Further, the “fold more potent against APN than 2n” value in data set [1] (IC50 ratio vs 2n) is listed as “over 10 fold”. In [1], the IC50 is 210 ± 40 nM.

`COc1cccc(C2=NN(C(N)=O)C(c3ccccc3OCC(=O)NO)C2)c1` (stereo not shown) [2e] returned a melting point of 208.5 to 210.3 °C. The compound also showed an IC50 in data set [1] of 320 ± 30 nM.

The compound `NC(=O)N1N=C(c2ccc(Cl)cc2Cl)CC1c1ccccc1OCC(=O)NO` (stereo not shown) [2l] returned a melting point of 196.3 to 198.2 °C. This compound also came in with an IC50 in data set [1] of 420 ± 30 nM.
